Source: patent US20070142437A1, “CHEMICAL COMPOUNDS” (priority 2005, published 2007)

Tests used:
Type in all cases: biochemical
hVEGFR2 = hVEGFR2 (Homo sapiens, UniProt P35968); test: VEGFR2 HTRF assay; details: Inhibition of VEGFR2
Procedure: The compounds of the present invention elicit important and measurable pharmacological responses. Different compounds from this class are particularly effective at inhibiting VEGFR2 enzymes, as described by the VEGFR2 HTRF assay below, at concentrations, which range from 0.0001 to 1 μM.
The assays were performed in 96-well black plates. 10 nM hVEGFR2 was used to phosphorylate 0.36 μM peptide (Biotin-Ahx-EEEEYFELVAKKKK) in the presence of 75 μM ATP, 5 mM MgCl2, 0.3 mM DTT, 0.1 mg/ml BSA, and 0.1 M HEPES (pH 7.5). 10 μl 0.5 M EDTA was added to reactions as negative controls. The 50 μl kinase reaction with or without inhibitors in 5% DMSO was carried out at room temperature for 45 minutes, then stopped by 40 μl of 125 mM EDTA. 2.4 μg/ml Streptavidin-APC and 0.15 μg/ml Eu-α-pY, in the presence of 0.1 mg/ml BSA, 0.1 M HEPES (pH7.5), were added to a final volume of 140 μl. The plate was incubated for 10 min at room temperature (22° C.) and read on the Victor with the time resolved fluorescence mode by exciting at 340 nm and reading the emission at 665 nm.
• Peptide from Synpep (Dublin, Calif.) • ATP, MgCl2, DTT, BSA, HEPES, EDTA, DMSO from Sigma Streptavidin-APC from Molecular Probes (Eugene, Oreg.) • Eu-α-pY from EG&G Wallac (Gaithersburg, Md.)

CDK2 = biological target: T1, CDK2 (Homo sapiens, UniProt P24941); test: CDK2 substrate phosphorylation assay (biotinylated peptide, 32P-ATP); details: Inhibition of CDK2
T1 construct: made in house
Procedure: (§1) The compounds of the present invention have valuable pharmacologic properties. Different compounds from this class are particularly effective at inhibiting CDK2 and/or CDK4 enzymes at concentrations, which range from 0.0001 to 1 μM and additionally show specificity relative to other kinases. Substrate phosphorylation assays were carried out as follows:
Cyclin dependent protein kinase 2 assays utilized the peptide Biotin-aminohexyl-ARRPMSPKKKA-NH2 as phosphoryl group acceptor. CDK2 was expressed utilizing a baculovirus expression system and was partially purified to comprise 20-80% of total protein, with no detectable competing reactions present. Typically, assays were performed by incubating enzyme (0.2-10 nM), with and without inhibitor, peptide substrate (1-10 nM), [g-^32P]ATP (1-20 nM), and 10-20 mM Mg^2+ for periods of time generally within the range 10-120 minutes. Reactions were terminated with 0.2-2 volumes of either 20% acetic acid or 50-100 mM EDTA buffered to pH 7 (substrate consumption <20%). The buffer employed in enzyme assay was 100 mM HEPES pH 7.5 containing 0.1 mg/mL BSA and 5% DMSO. Inhibitors were diluted in 100% DMSO prior to addition into the assay. Detection of peptide phosphorylation was accomplished by scintillation counting following either collection of peptide onto phosphocellulose filters (for reactions stopped with acetic acid), collection of peptide in wells of 96 well plates coated with Streptavidin (Pierce) (reactions were stopped with EDTA), or addition of Avidin coated Scintillant impregnated beads (Scintillation Proximity Assays from Amersham, reactions were stopped with EDTA). Counts detected by any of these methodologies minus the appropriate background (assays with additional 40 mM EDTA or lacking peptide substrate) were assumed to be proportional to the reaction initial rates, and IC50s were determined by a least squares fit to the equation CPM=Vmax*(1−([I]/(K+[I])))+nsb, or −pIC50s were determined by a fit to the equation CPM=nsb+(Vmax−nsb)/(1+(x/10^x−pIC50)), where nsb are the background counts. Filters are washed four times with 75 mM phosphoric acid. Radioactivity was determined by liquid scintillation counting.

CDK4 = biological target: T2, CDK4 (Homo sapiens, UniProt P11802); test: CDK4 substrate phosphorylation assay (Rb protein, 33P-ATP); details: Inhibition of CDK4
T2 construct: made in house
Procedure: as §1
Cyclin D1 and cyclin-dependent kinase 4 were expressed utilizing a baculovirus expression system. The catalytic activity of CDK4 protein was assayed by measuring the phosphorylation of Rb protein. A truncated Rb protein (residues 773-928 of the native retinoblastoma protein, fused to glutathione S-transferase to facilitate purification) was used as the phosphoryl acceptor. The assay conditions were 100 mM HEPES (N-[2-hydroxyethyl]piperzine-N′-[2-ethanesulfonic acid]), pH 7.5, 0.5 μM GST-Rb protein, 1 μCi/mL [^33P]-ATP (1 nM-20 μM), 5-20 mM MgCl2, 2.5 mM EDTA, 1 mM dithiotheitol, 0.2 mg/mL bovine serum albumin, 2% (v/v) dimethyl sulfoxide (DMSO), CDK4 enzyme (5-50 nM) in a final volume of 50 μL. Reactions were incubated for time periods of 10-60 min at 30° C. and terminated by the addition of 50 μL quench (1 mM ATP/100 mM EDTA, pH 7.0). Detection of protein phosphorylation was accomplished by scintillation counting following collection of protein in 96 well plates coated with Glutathione or trapping of protein onto phosphocellulose filters. Counts detected by these methodologies minus the appropriate background were assumed to be proportional to the reaction initial rates. IC50 values were determined by measuring enzyme activity in the presence of different inhibitor concentrations (0.1 nM to 50 μM). IC50s were determined by a least squares fit to the equation CPM=Vmax*(1−([I]/(K+[I])))+nsb, or pIC50s were determined by a fit to the equation CPM=nsb+(Vmax−nsb)/(1+(x/10^x−pIC50)), where nsb are the background counts.

Sequence of hVEGFR2 (P35968 20-1356): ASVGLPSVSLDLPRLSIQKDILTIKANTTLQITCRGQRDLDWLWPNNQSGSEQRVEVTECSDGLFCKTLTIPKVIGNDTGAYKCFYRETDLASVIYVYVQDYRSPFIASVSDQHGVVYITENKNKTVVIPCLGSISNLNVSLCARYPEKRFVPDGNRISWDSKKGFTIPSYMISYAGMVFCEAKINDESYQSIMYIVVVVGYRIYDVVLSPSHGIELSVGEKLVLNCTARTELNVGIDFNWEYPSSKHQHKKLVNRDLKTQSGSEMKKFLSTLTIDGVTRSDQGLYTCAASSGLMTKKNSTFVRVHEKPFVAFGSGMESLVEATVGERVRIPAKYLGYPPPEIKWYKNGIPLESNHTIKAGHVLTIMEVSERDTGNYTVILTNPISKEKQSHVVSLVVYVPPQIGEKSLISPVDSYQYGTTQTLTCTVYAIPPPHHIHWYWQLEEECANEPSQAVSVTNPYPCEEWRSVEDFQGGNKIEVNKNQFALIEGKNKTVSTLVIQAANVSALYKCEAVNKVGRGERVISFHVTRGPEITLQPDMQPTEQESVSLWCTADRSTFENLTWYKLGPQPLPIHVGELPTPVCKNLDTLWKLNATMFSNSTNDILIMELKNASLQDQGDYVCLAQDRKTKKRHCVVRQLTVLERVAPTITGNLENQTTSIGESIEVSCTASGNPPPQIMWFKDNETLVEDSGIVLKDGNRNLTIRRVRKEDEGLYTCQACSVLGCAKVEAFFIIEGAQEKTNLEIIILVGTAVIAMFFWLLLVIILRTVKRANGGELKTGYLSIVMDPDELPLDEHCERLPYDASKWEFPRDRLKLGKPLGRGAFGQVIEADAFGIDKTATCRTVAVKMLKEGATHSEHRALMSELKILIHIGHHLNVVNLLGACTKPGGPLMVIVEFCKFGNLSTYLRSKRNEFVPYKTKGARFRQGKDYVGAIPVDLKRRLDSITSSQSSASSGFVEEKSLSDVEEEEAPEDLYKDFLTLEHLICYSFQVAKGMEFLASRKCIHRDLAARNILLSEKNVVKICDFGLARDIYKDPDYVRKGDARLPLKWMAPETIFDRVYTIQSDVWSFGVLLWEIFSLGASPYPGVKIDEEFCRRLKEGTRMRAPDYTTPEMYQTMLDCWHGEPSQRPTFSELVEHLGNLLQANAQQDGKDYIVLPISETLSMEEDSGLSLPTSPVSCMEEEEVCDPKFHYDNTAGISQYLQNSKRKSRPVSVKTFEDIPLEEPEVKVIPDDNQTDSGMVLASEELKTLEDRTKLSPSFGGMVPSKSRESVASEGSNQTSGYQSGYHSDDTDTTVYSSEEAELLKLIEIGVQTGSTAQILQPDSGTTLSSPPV
T2 sequence (P11802 whole entry, species assumed): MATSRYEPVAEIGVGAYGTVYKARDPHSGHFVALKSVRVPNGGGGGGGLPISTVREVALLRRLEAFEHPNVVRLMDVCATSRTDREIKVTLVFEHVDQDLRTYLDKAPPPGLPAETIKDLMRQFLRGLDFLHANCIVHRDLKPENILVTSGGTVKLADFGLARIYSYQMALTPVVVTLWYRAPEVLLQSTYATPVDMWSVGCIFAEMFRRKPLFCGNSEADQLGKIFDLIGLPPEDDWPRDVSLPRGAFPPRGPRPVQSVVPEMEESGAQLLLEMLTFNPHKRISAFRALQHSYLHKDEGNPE
T2 sequence (P24385 whole entry partner, species assumed): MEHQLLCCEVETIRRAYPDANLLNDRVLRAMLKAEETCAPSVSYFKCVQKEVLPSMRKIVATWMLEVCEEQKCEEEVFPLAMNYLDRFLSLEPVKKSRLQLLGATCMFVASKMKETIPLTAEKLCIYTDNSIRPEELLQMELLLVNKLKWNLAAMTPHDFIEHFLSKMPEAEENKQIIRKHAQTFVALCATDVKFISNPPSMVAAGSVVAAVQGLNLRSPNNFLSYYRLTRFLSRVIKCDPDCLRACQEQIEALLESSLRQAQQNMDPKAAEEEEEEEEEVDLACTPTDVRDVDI

Row | SMILES | IC50 (hVEGFR2) [nM] | IC50 (CDK2) [nM] | IC50 (CDK4) [nM]
1 | c1ccc(-c2cnc(Nc3ccc(CN4CCOCC4)cc3)o2)cc1 [Example 8, N-[4-(Morpholin-4-ylmethyl)phenyl]-5-phenyl-1,3-oxazol-2-amine] | < 1000 | < 10000 | < 1000
2 | COc1cccc(-c2cnc(Nc3ccc(N4CCN(C)CC4)c(F)c3)o2)c1 [Example 20, N-[3-fluoro-4-(4-methylpiperazin-1-yl)phenyl]-5-(3-methoxyphenyl)-1,3-oxazol-2-amine] | < 1000 | < 1000 | < 100
3 | Cc1cc(Nc2ncc(-c3cccc(OC4CCCC4)c3)o2)cnc1N1CCN(C)CC1 [Example 37, N-{5-[3-(cyclopentyloxy)phenyl]-1,3-oxazol-2-yl}-5-methyl-6-(4-methylpiperazin-1-yl)pyridin-3-amine] | < 1000 | < 1000 | < 100
4 | COc1cccc(-c2cnc(Nc3ccc(N4CCN(C)CC4)c(C)c3)o2)c1 [Example 22, 5-(3-Methoxyphenyl)-N-[3-methyl-4-(4-methylpiperazin-1-yl)phenyl]-1,3-oxazol-2-amine] | < 100 | < 1000 | < 100
5 | COc1cccc(-c2cnc(Nc3ccc(CN4CCCC4)cc3)o2)c1 [Example 44, 5-(3-methoxyphenyl)-N-[4-(pyrrolidin-1-ylmethyl)phenyl]-1,3-oxazol-2-amine] | < 100 | < 1000 | < 100
6 | C=C(C)COc1cccc(-c2cnc(Nc3ccc(N4CCN(C)CC4)cc3)o2)c1 [Example 16, N-[4-(4-methylpiperazin-1-yl)phenyl]-5-{3-[(2-methylprop-2-enyl)oxy]phenyl}-1,3-oxazol-2-amine] | < 1000 | < 100 | < 100
7 | c1cc(OC2CCCC2)cc(-c2cnc(Nc3ccc(N4CCSCC4)cc3)o2)c1 [Example 30, 5-[3-(Cyclopentyloxy)phenyl]-N-(4-thiomorpholin-4-ylphenyl)-1,3-oxazol-2-amine] | < 1000 | < 10000 | < 1000
8 | COc1cccc(-c2cnc(Nc3ccc(CN(C)C)cc3)o2)c1 [Example 40, N-{4-[(dimethylamino)methyl]phenyl}-5-(3-methoxyphenyl)-1,3-oxazol-2-amine] | < 1000 | < 1000 | < 100
9 | CCN(CC)CCNC(=O)c1ccc(Nc2ncc(-c3cccc(OC4CCCC4)c3)o2)cc1 [Example 48, 4-({5-[3-(cyclopentyloxy)phenyl]-1,3-oxazol-2-yl}amino)-N-[2-(diethylamino)ethyl]benzamide] | < 1000 | < 1000 | < 100
10 | Cc1cc(Nc2ncc(-c3cccc(OC4CCCC4)c3)o2)ccc1N1CCN(C)CC1 [Example 27, 5-[3-(cyclopentyloxy)phenyl]-N-[3-methyl-4(4-methylpiperazin-1-yl)phenyl]-1,3-oxazol-2-amine] | < 100 | < 100 | < 100
11 | CN1CCN(Cc2ccc(Nc3ncc(-c4ccccc4)o3)cc2)CC1 [Example 39, N-{4-[(4-methylpiperazin-1-yl)methyl]phenyl}-5-phenyl-1,3-oxazol-2-amine] | < 1000 | < 1000 | < 1000
12 | CN1CCN(c2ccc(Nc3ncc(-c4cccc(OC5CCCC5)c4)o3)cn2)CC1 [Example 34, N-{5-[3-(cyclopentyloxy)phenyl]-1,3-oxazol-2-yl}-6-(4-methylpiperazin-1-yl)pyridin-3-amine] | < 1000 | < 100 | < 100
13 | COc1cccc(-c2cnc(Nc3ccccc3)o2)c1 [Example 1, 5-(3-methoxyphenyl)-N-phenyl-1,3-oxazol-2-amine] | < 10000 | < 1000 | < 1000
14 | COc1cccc(-c2cnc(Nc3ccc(N4CCN(C)CC4)c(C(F)(F)F)c3)o2)c1 [Example 21, 5-(3-Methoxyphenyl)-N-[4-(4-methylpiperazin-1-yl)-3-(trifluoromethyl)phenyl]-1,3-oxazol-2-amine] | < 1000 | < 1000 | < 100
